Assay results published in patent publication US10975068B2, “6-aminopyridin-3-yl thiazoles as modulators of RORγT” (Janssen Pharmaceutica NV, priority 2016, dated 2021).
Where two headings read alike, the source gives them in different places. Values belong to the compound of their own block, whether it stands above or below them.

Experiments:
[1] = target: human RORγt ligand binding domain (RORγt LBD) (Homo sapiens (Human), UniProt P51449); assay: RORγt ThermoFluor® assay (thermal shift binding); conditions: read-out: ThermoFluor® Assay, Kd
human RORγt ligand binding domain (RORγt LBD), sequence (P51449 other isoform, or with tags, fused parts or gaps): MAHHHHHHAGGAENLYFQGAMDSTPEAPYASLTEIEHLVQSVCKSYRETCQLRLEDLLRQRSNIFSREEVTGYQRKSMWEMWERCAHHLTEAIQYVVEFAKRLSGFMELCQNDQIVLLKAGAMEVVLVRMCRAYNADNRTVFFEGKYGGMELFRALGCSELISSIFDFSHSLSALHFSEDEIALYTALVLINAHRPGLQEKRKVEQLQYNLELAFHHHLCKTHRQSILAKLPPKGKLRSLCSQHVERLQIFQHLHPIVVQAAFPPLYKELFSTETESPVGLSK
How it was run: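 Binding was inferred from thermal stabilisation (ΔTm) of the E. coli-expressed RORγt LBD (0.065 mg/mL), monitored by 1,8-ANS (60 μM) emission at 500 nm during a 1 °C/min ramp. Buffer was Hepes 100 mM pH 7.0 with NaCl, GSH and Tween-20.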

full-length human RORγt = full-length human RORγt (Homo sapiens (Human), UniProt P51449); assay: RORγt (full-length human) reporter assay, Conditions B or C; type: cell-based; conditions: for RORγt (FL) Reporter Assay B or C, % inhibition (value marked *): marked *: footnote not given; for IC50: read-out: RORγt (FL) Reporter Assay B or C, IC50; for inhibition at 3 µM: at 3 μM compound concentration, read-out: RORγt (FL) Reporter Assay B or C, % inhibition
full-length human RORγt, sequence (P51449 other isoform, or with tags, fused parts or gaps): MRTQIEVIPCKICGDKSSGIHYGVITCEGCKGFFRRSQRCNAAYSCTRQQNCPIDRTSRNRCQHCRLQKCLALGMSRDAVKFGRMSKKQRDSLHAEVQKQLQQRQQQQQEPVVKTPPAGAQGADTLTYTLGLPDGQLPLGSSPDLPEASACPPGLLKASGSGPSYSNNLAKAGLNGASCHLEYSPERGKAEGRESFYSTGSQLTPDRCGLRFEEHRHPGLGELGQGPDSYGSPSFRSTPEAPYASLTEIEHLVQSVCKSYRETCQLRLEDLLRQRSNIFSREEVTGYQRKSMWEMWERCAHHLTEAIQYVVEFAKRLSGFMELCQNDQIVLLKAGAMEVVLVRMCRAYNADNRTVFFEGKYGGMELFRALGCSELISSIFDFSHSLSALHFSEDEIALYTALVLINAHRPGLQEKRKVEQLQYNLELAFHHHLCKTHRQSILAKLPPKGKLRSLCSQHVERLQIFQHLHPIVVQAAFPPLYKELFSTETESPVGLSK
How it was run: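 Readout is dual luciferase: firefly (GAL4-driven) normalized to DMSO-only and saturating-reference controls, then to CMV-Renilla. Full-length human RORγt fused to GAL4-DBD was transiently expressed in HEK293T; compound exposure ran overnight (16-20 h) starting 4-6 h after transfection, final FBS 1.3%, DMSO 0.1%.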

SMILES: C[C@H]1CCCN1C(=O)c1nc(C(=O)N[C@H](C)C(C)(C)O)sc1-c1cnc(NCC(C)(C)C)cc1C(F)F [Example 343, 5-[4-(Difluoromethyl)-6-(2,2-dimethylpropylamino)-3-pyridyl]-N-[(1R)-2-hydroxy-1,2-dimethyl-propyl]-4-[(2S)-2-methylpyrrolidine-1-carbonyl]thiazole-2-carboxamide]
Kd [1]: 5.1 nM
inhibition at 3 µM (full-length human RORγt): 98%
IC50 (full-length human RORγt): 310 nM

SMILES: C[C@H]1CCCN1C(=O)c1nc(C(=O)NC[C@@H](O)C(F)(F)F)sc1-c1cnc(NC(C)(C)C)cc1C(F)(F)F (relative stereo) [Example 354, 5-(6-(tert-Butylamino)-4-(trifluoromethyl)pyridin-3-yl)-4-((S)-2-methylpyrrolidine-1-carbonyl)-N—((R*)-3,3,3-trifluoro-2-hydroxypropyl)thiazole-2-carboxamide]
Kd [1]: 0.97 nM
inhibition at 3 µM (full-length human RORγt): 93%
IC50 (full-length human RORγt): 15 nM

SMILES: C[C@H]1CCCN1C(=O)c1nc(C(=O)NC(C)(C)C(C)(C)O)sc1-c1cnc(NC(C)(C)C)cc1C(F)(F)F [Example 342, 5-[6-(tert-Butylamino)-4-(trifluoromethyl)-3-pyridyl]-N-(2-hydroxy-1,1,2-trimethyl-propyl)-4-[(2S)-2-methylpyrrolidine-1-carbonyl]thiazole-2-carboxamide]
Kd [1]: 5.7 nM
inhibition at 3 µM (full-length human RORγt): 103%
IC50 (full-length human RORγt): 40 nM

SMILES: CC[C@H](Nc1cc(C(F)F)c(-c2sc(C(=O)N[C@H]3CC[C@H](O)C3)nc2C(=O)N2CCC[C@@H]2C)cn1)C(F)(F)F [Example 398, 5-[4-(Difluoromethyl)-6-[[(1S)-1-(trifluoromethyl)propyl]amino]-3-pyridyl]-N-[(1S,3S)-3-hydroxycyclopentyl]-4-[(2S)-2-methylpyrrolidine-1-carbonyl]thiazole-2-carboxamide]
Kd [1]: 1.5 nM
inhibition at 3 µM (full-length human RORγt): 109%
IC50 (full-length human RORγt): 39 nM

SMILES: C[C@H]1CC(F)(F)CN1C(=O)c1nc(C(=O)NCC(C)(C)O)sc1-c1cnc(NCC2(C(F)(F)F)CCC2)cc1C(F)F [Example 273, 4-[(2S)-4,4-Difluoro-2-methyl-pyrrolidine-1-carbonyl]-5-[4-(difluoromethyl)-6-[[1-(trifluoromethyl)cyclobutyl]methylamino]-3-pyridyl]-N-(2-hydroxy-2-methyl-propyl)thiazole-2-carboxamide]
Kd [1]: 0.51 nM
inhibition at 3 µM (full-length human RORγt): 102%
IC50 (full-length human RORγt): 5.2 nM

SMILES: C[C@H]1CCCN1C(=O)c1nc(C(=O)NCC(C)(C)O)sc1-c1cnc(NC(C2CC2)C2CC2)cc1C(F)(F)F [Example 139, (S)-5-(6-((Dicyclopropylmethyl)amino)-4-(trifluoromethyl)pyridin-3-yl)-N-(2-hydroxy-2-methylpropyl)-4-(2-methylpyrrolidine-1-carbonyl)thiazole-2-carboxamide]
Kd [1]: 1.1 nM
RORγt (FL) Reporter Assay B or C, % inhibition (value marked *) (full-length human RORγt; Conditions B or C): 107* %
IC50 (full-length human RORγt; Conditions B or C): 12 nM

SMILES: CCC(C)(C)Nc1cc(C(F)F)c(-c2sc(C(=O)NCC(C)(C)O)nc2C(=O)N2C3CCC2CC3)cn1 [Example 93, 4-((1s,4s)-7-Azabicyclo[2.2.1]heptane-7-carbonyl)-5-(4-(difluoromethyl)-6-(tert-pentylamino)pyridin-3-yl)-N-(2-hydroxy-2-methylpropyl)thiazole-2-carboxamide]
Kd [1]: 1.1 nM
RORγt (FL) Reporter Assay B or C, % inhibition (value marked *) (full-length human RORγt; Conditions B or C): 121* %
IC50 (full-length human RORγt; Conditions B or C): 10 nM

SMILES: CC[C@@H](Nc1cc(C(F)F)c(-c2sc(C(=O)NCC(C)(C)O)nc2C(=O)N2C3CCC2CC3)cn1)C1CC1 (stereo in doubt) [Example 164]
Kd [1]: 4.6 nM
RORγt (FL) Reporter Assay B or C, % inhibition (value marked *) (full-length human RORγt; Conditions B or C): 105* %
IC50 (full-length human RORγt; Conditions B or C): 23 nM

SMILES: C[C@H](Nc1cc(C(F)F)c(-c2sc(C(=O)N[C@H]3CC[C@H](O)C3)nc2C(=O)N2CCC[C@@H]2C)cn1)C(F)(F)F [Example 288, 5-(4-(Difluoromethyl)-6-(((S)-1,1,1-trifluoropropan-2-yl)amino)pyridin-3-yl)-N-((1S,3S)-3-hydroxycyclopentyl)-4-((S)-2-methylpyrrolidine-1-carbonyl)thiazole-2-carboxamide]
Kd [1]: 4.4 nM
inhibition at 3 µM (full-length human RORγt): 103%
IC50 (full-length human RORγt): 29 nM

More lines, in order of falling Kd [1], values ahead:

Kd [1]: 4.5 nM
RORγt (FL) Reporter Assay B or C, % inhibition (value marked *) (full-length human RORγt; Conditions B or C): 105* %
IC50 (full-length human RORγt; Conditions B or C): 28 nM
SMILES: C[C@H]1CCCN1C(=O)c1nc(C(=O)NCC2(O)CCC2)sc1-c1cnc(NC(C)(C)C)cc1C(F)F [Example 133, (S)-5-(6-(tert-Butylamino)-4-(difluoromethyl)pyridin-3-yl)-N-((1-hydroxycyclobutyl)methyl)-4-(2-methylpyrrolidine-1-carbonyl)thiazole-2-carboxamide]

Kd [1]: 1.4 nM
inhibition at 3 µM (full-length human RORγt): 106%
IC50 (full-length human RORγt): 7 nM
SMILES: C[C@H]1CCCN1C(=O)c1nc(C(=O)N[C@H](C)C(C)(C)O)sc1-c1cnc(NCC(C)(C)C)cc1C(F)(F)F [Example 334, 5-[6-(2,2-Dimethylpropylamino)-4-(trifluoromethyl)-3-pyridyl]-N-[(1R)-2-hydroxy-1,2-dimethyl-propyl]-4-[(2S)-2-methylpyrrolidine-1-carbonyl]thiazole-2-carboxamide]

Kd [1]: 1.2 nM
inhibition at 3 µM (full-length human RORγt): 118%
IC50 (full-length human RORγt): 9 nM
SMILES: C[C@H]1CCCN1C(=O)c1nc(C(=O)N[C@@H]2CCC[C@H]2O)sc1-c1cnc(NC(C)(C)C)cc1C(F)F [Example 397, 5-[6-(tert-Butylamino)-4-(difluoromethyl)-3-pyridyl]-N-[(1R,2R)-2-hydroxycyclopentyl]-4-[(2S)-2-methylpyrrolidine-1-carbonyl]thiazole-2-carboxamide]

Kd [1]: 0.9 nM
inhibition at 3 µM (full-length human RORγt): 105%
IC50 (full-length human RORγt): 3.1 nM
SMILES: C[C@H]1CCCN1C(=O)c1nc(C(=O)N[C@H]2COC[C@@H]2O)sc1-c1cnc(NC(C)(C)C)cc1C(F)(F)F [Example 348, 5-[6-(tert-Butylamino)-4-(trifluoromethyl)-3-pyridyl]-N-[(3S,4R)-4-hydroxytetrahydrofuran-3-yl]-4-[(2S)-2-methylpyrrolidine-1-carbonyl]thiazole-2-carboxamide]

Kd [1]: 0.78 nM
RORγt (FL) Reporter Assay B or C, % inhibition (value marked *) (full-length human RORγt; Conditions B or C): 107* %
IC50 (full-length human RORγt; Conditions B or C): 3.3 nM
SMILES: C[C@H]1CCCN1C(=O)c1nc(C(=O)NCC(C)(C)O)sc1-c1cnc(NCC2(C(F)(F)F)CCC2)cc1C(F)(F)F [Example 117, (S)—N-(2-Hydroxy-2-methylpropyl)-4-(2-methylpyrrolidine-1-carbonyl)-5-(4-(trifluoromethyl)-6-(((1-(trifluoromethyl)cyclobutyl)methyl)amino)pyridin-3-yl)thiazole-2-carboxamide]

Kd [1]: 0.71 nM
inhibition at 3 µM (full-length human RORγt): 90%
IC50 (full-length human RORγt): 97 nM
SMILES: C[C@H](NC(=O)c1nc(C(=O)N2CC(F)(F)C[C@@H]2C)c(-c2cnc(NC3(C)CCC3)cc2C(F)F)s1)C(C)(C)O [Example 326, 4-((S)-4,4-Difluoro-2-methylpyrrolidine-1-carbonyl)-5-(4-(difluoromethyl)-6-((1-methylcyclobutyl)amino)pyridin-3-yl)-N—((S)-3-hydroxy-3-methylbutan-2-yl)thiazole-2-carboxamide]

Kd [1]: 0.15 nM
RORγt (FL) Reporter Assay B or C, % inhibition (value marked *) (full-length human RORγt; Conditions B or C): 109* %
IC50 (full-length human RORγt; Conditions B or C): 9.5 nM
SMILES: CCC(C)(C)Nc1cc(C(F)F)c(-c2sc(C(=O)NCC(C)(C)O)nc2C(=O)N2CCCC[C@@H]2C)cn1 [Example 95, (S)-5-(4-(Difluoromethyl)-6-(tert-pentylamino)pyridin-3-yl)-N-(2-hydroxy-2-methylpropyl)-4-(2-methylpiperidine-1-carbonyl)thiazole-2-carboxamide]
